Test results: US20170210778A1, “NOVEL COMPOUNDS” (The Provost, Fellows, Foundation Scholars, and the other …, priority 2014, published 2017)
*1 amine or outer side, *2 acyl side, *3 side chain or, on linkers, in order; H or OH if unused. Where a SMILES comes first, the peptide text is derived from it. [ ]: non-standard residue; d: D form. The star is where a group is joined. d(γGlu) = O=C(O)[C@@H](CCC(=O)[*:2])N[*:1]; Ala(3-yl) = N[C@@H](C*)C(=O)O; dLac = C[C@@H](O)C(=O)O

How the values were obtained:
[1] = target: T1, murine NOD1 (Mus musculus, UniProt Q8BHB0); test: NOD1 functional agonist assay, 293mNOD1-SEAP reporter cells; format: cell-based; details: 293mNOD1 cells, OD above 3*O.D of negative control
T1 construct: expressed in transfected cells; host or cells: HEK293
T1 sequence (Q8BHB0 1-953): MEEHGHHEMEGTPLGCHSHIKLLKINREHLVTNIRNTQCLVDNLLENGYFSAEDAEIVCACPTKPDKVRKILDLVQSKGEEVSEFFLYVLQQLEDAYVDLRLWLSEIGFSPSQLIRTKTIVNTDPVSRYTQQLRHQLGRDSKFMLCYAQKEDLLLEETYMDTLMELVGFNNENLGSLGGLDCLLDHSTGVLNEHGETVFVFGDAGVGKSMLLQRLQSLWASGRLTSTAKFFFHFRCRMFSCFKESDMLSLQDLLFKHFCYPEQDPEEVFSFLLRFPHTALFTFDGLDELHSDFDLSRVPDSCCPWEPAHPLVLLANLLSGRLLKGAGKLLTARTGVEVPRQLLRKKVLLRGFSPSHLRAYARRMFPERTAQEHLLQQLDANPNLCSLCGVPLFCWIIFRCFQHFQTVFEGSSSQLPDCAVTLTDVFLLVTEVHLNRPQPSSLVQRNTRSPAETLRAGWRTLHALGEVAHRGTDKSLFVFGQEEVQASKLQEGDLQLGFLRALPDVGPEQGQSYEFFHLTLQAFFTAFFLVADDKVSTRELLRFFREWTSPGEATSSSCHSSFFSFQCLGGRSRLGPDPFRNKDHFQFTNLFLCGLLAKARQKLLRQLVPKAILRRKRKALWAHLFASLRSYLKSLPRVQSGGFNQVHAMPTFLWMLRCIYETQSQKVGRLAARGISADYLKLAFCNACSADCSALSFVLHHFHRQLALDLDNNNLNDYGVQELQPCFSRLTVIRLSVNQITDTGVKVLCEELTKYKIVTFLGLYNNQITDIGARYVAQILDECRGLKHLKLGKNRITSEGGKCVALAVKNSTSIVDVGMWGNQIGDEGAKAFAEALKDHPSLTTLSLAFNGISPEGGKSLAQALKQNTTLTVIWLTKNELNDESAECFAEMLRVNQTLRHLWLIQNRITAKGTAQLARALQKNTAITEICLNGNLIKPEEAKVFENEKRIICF
From the text: (§1) HEK293 cells were stably transfected with plasmid for the overexpression of the NOD1 genes and a reporter plasmid expressing a secreted embryonic alkaline phosphatase (SEAP) gene under the control of a promoter inducible by the transcription factors NF-κB and AP-1. These cells are referred herein as 293hNOD1-SEAP (for cells overexpressing the human NOD1 gene) and 293mNOD1-SEAP (for cells overexpressing the murine NOD1 gene). Upon NOD1 stimulation, these cells induce the activation of NF-κB and AP-1 and subsequently the secretion of SEAP. The reporter protein is easily detectable and measurable when using QUANTI-Blue™ (InvivoGen, San Diego, Calif.), a medium that turns purple/blue in the presence of SEAP.
(§2) The biological activity of the compounds of the invention tested using 293hNOD1 and 293mNOD1 cells. SEAP expression was measured using the commercially available SEAP detection kit (HEK-Blue™ Detection, InvivoGen). The SEAP activity in cells was quantified using the microplate reader (FLUOStar OPTIMA, BMG laboratories), the absorbance values were read using filter with excitation at 620 nm and emission at 655 nm. The results provided in Table 2 were expressed as the concentration were a significant mean optical density (OD) can be observed (above 3*O.D of negative control). As a positive control, the NOD1 pathway was stimulated with commercially available iE-DAP (InvivoGen) and C12-iE-DAP (an acylated derivative of DAP; InvivoGen). As a negative control endotoxin-free water was used. Additionally, 293 cells expressing the SEAP gene but not the NOD1 gene were used as a control.

[2] = target: T2, human NOD1 (Homo sapiens, UniProt Q9Y239); test: NOD1 functional agonist assay, 293hNOD1-SEAP reporter cells; format: cell-based; details: 293hNOD1 cells, OD above 3*O.D of negative control
T2 construct: expressed in transfected cells; host or cells: HEK293
T2 sequence (Q9Y239 1-953): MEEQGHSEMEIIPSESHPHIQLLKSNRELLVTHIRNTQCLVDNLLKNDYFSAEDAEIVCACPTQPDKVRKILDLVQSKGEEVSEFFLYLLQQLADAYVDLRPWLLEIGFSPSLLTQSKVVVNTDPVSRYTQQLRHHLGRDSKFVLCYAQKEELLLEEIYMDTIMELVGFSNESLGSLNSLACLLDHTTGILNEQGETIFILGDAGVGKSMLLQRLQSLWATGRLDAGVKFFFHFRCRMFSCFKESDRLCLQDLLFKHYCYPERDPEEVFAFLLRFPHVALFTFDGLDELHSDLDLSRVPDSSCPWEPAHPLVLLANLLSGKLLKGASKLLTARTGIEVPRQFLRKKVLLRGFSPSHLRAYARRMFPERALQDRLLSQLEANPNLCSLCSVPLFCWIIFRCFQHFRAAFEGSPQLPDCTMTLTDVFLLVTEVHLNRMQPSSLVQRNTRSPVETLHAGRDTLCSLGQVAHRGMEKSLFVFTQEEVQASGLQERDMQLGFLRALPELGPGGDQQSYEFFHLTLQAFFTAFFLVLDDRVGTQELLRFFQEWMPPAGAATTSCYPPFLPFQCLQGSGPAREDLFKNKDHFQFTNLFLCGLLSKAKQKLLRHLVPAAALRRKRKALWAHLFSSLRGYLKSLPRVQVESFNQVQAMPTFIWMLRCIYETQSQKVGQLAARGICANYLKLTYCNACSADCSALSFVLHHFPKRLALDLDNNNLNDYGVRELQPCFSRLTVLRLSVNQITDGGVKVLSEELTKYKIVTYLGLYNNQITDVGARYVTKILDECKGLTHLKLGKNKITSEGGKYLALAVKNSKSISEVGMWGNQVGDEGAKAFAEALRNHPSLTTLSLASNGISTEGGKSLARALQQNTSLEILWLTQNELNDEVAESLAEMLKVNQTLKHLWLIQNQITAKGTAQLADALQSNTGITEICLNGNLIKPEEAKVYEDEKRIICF
From the text: as §1, §2

Compound	mNod1: concentration where a significant mean optical density (OD) can be observed [1] [µg/mL]	hNod1: concentration where a significant mean optical density (OD) can be observed [2] [µg/mL]
CC(C)[C@H](N)C(=O)N[C@H](CCC(=O)N[C@H](CSC[C@H](N)C(=O)O)C(=O)O)C(=O)O [Example 8, N^2-(L-valyl)-N^5-((S)-2-(((R)-2-amino-2-carboxyethyl)thio)-1-carboxyethyl)-D-glutamine]	1	0.1
CCCCCCCCCCCCCC(=O)N[C@H](CCC(=O)N[C@H](CSC[C@H](N)C(=O)O)C(=O)N[C@H](C)C(=O)O)C(=O)O [Example 17, N^5-((S)-3-(((R)-2-amino-2-carboxyethyl)thio)-1-(((R)-1-carboxyethyl)amino)-1-oxopropan-2-yl)-N^2-tetradecanoyl-D-glutamine]	0.001	0.01
CCCCCCC(=O)N[C@H](CCC(=O)N[C@H](CSC[C@H](N)C(=O)O)C(=O)O)C(=O)O [Example 2, N^5-((S)-2-(((R)-2-amino-2-carboxyethyl)thio)-1-carboxyethyl)-N^2-heptanoyl-D-glutamine]	1	0.1
CCCCCCCCCCCCCC(=O)N[C@@H](C)C(=O)N[C@H](CCC(=O)N[C@H](CSC[C@H](N)C(=O)O)C(=O)N[C@H](C)C(=O)O)C(=O)O [Example 21, N^5-((S)-3-(((R)-2-amino-2-carboxyethyl)thio)-1-(((R)-1-carboxyethyl)amino)-1-oxopropan-2-yl)-N^2-(tetradecanoyl-L-alanyl)-D-glutamine]	0.001	0.01
N[C@H](CCC(=O)N[C@H](CSC[C@H](N)C(=O)O)C(=O)O)C(=O)O [Example 1, N^5-((S)-2-(((R)-2-amino-2-carboxyethyl)thio)-1-carboxyethyl)-D-glutamine]	10	1
C[C@@H](NC(=O)[C@@H](CSC[C@H](N)C(=O)O)NC(=O)CC[C@@H](N)C(=O)O)C(=O)O [Example 14, N^5-((S)-3-(((R)-2-amino-2-carboxyethyl)thio)-1-(((R)-1-carboxyethyl)amino)-1-oxopropan-2-yl)-D-glutamine]	10	1
CCCCCCC(=O)N[C@H](CCC(=O)N[C@H](CSC[C@H](N)C(=O)O)C(=O)NCC(=O)O)C(=O)O [Example 23, N^5-((S)-3-(((R)-2-amino-2-carboxyethyl)thio)-1-((carboxymethyl)amino)-1-oxopropan-2-yl)-N^2-heptanoyl-D-glutamine]	1	1
CC(C)C[C@H](N)C(=O)N[C@H](CCC(=O)N[C@H](CSC[C@H](N)C(=O)O)C(=O)O)C(=O)O [Example 6, N^2-(L-leucyl)-N^5-((S)-2-(((R)-2-amino-2-carboxyethyl)thio)-1-carboxyethyl)-D-glutamine]	1	0.1
N[C@@H](CSC[C@@H](NC(=O)CC[C@@H](NC(=O)[C@@H](N)Cc1ccccc1)C(=O)O)C(=O)O)C(=O)O [Example 9, N^2-(L-phenylalanyl)-N^5-((S)-2-(((R)-2-amino-2-carboxyethyl)thio)-1-carboxyethyl)-D-glutamine]	10	10

The next lines start with the values.

mNod1: concentration where a significant mean optical density (OD) can be observed [1] [µg/mL]	hNod1: concentration where a significant mean optical density (OD) can be observed [2] [µg/mL]	Compound
0.01	0.01	CCCCCCCCCCCC(=O)N[C@H](CCC(=O)N[C@H](CSC[C@H](N)C(=O)O)C(=O)NCC(=O)O)C(=O)O [Example 24, N^5-((S)-3-(((R)-2-amino-2-carboxyethyl)thio)-1-((carboxymethyl)amino)-1-oxopropan-2-yl)-N^2-dodecanoyl-D-glutamine]
0.01	0.01	CCCCCCCCCCCCCC(=O)N[C@H](CCC(=O)N[C@@H](COC[C@@H](N)C(=O)O)C(=O)O)C(=O)O [Example 35, N^5-((S)-2-((R)-2-amino-2-carboxyethoxy)-1-carboxyethyl)-N^2-tetradecanoyl-D-glutamine]
0.1	10	C[C@H](N)C(=O)N[C@H](CCC(=O)N[C@H](CSC[C@H](N)C(=O)O)C(=O)NCC(=O)O)C(=O)O [Example 26, N^2-(L-alanyl)-N^5-((S)-3-(((R)-2-amino-2-carboxyethyl)thio)-1-((carboxymethyl)amino)-1-oxopropan-2-yl)-D-glutamine]
10	10	C[C@H](NC(=O)[C@@H](C)O)C(=O)N[C@H](CCC(=O)N[C@H](CSC[C@H](N)C(=O)O)C(=O)NCC(=O)O)C(=O)O [Example 30, N^5-((S)-3-(((R)-2-amino-2-carboxyethyl)thio)-1-((carboxymethyl)amino)-1-oxopropan-2-yl)-N^2-(((R)-2-hydroxypropanoyl)-L-alanyl)-D-glutamine] (H-[dLac]A[d(γGlu)][dC](Ala(3-yl))G-OH)
100	100	C[C@H](N)C(=O)N[C@H](CCC(=O)N[C@@H](COC[C@@H](N)C(=O)O)C(=O)O)C(=O)O [Example 36, N^2-(L-alanyl)-N^5-((S)-2-((R)-2-amino-2-carboxyethoxy)-1-carboxyethyl)-D-glutamine]
